Measurements taken from patent US11266674B2, “Pharmaceutical composition for tumor treatment or prevention, method, and use thereof” (SICHUAN KELUN-BIOTECH BIOPHARMACEUTICAL CO., LTD., priority 2017, dated 2022).
Several values for one entry are separate records, joined by “and”; a condition that tells them apart may be missing. Equal values may be shown once.

How the values were obtained:
[1] = system: human hepatoma Hep3B cells; experiment: In vivo efficacy on subcutaneous xenograft of human hepatoma Hep3B cells in NU/NU nude mice; conditions: compound 1.5 mg/kg, Sorafenib 30 mg/kg, combination 1.5 + 30 mg/kg; for Tumor volume (mm^3) Day 0: Day 0, at grouping (baseline)
Description: (§1) This example aimed to evaluate the in vivo efficacy and tolerability of the pharmaceutical combination of the present invention in a NU/NU nude mouse model with human hepatoma Hep3B cell subcutaneous xenografts.
(§2) Human hepatoma Hep3B cells were cultured as a monolayer in vitro, and the culture conditions were EMEM culture medium supplemented with 10% Fetal Bovine Serum, and incubation in an incubator at 37° C. and 5% CO2. The cells were subcultured by treatment with routine trypsin-EDTA digestion twice a week.
0.2 mL of a cell suspension (PBS:Matrigel=1:1) containing 1×10^6 Hep3B was inoculated subcutaneously into the right flank of each mouse. After the inoculated tumor reached an average size in the range of 100-200 mm^3, the grouping of animals was performed.
(§3) 5 g of sodium carboxymethyl cellulose was weighed and placed in a 1000 mL wide-mouth bottle, 800 mL of ultrapure water was added, and the mixture was stirred to effect a solution, the volume of which was then filled up to 1000 mL, thereby obtaining the vehicle.
(§4) An appropriate amount of the 4′-thionucleoside phosphamide derivative compound in the present invention was weighed, a certain amount of the vehicle was added, and a uniform suspension was obtained after mixing.
(§5) An appropriate amount of Sorafenib was weighed, and dissolved by adding polyoxyethylene castor oil. Ethanol was added and evenly mixed, followed by addition of physiological saline, thereby obtaining a uniform suspension.
(§6) Mice bearing a tumor having a volume of 100-200 mm^3 were selected, and randomized into groups (8 mice per group). The dosing volume was 10 mL/kg (in the group treated with the drug combination, the two drugs were administered individually at an interval of 4 hours), and the administration was performed by oral gavage (p.o.) every day for 20 days. The tumor volume, body weight of the animals and tumor weight were measured.
(1) The Anti-Tumor Effect was Evaluated by Measuring the Tumor Volume.
The equation for calculating the tumor volume is as follows: V=0.5a×b^2, wherein a and b respectively represent the major and minor diameters of a tumor.
RTV=Vt/V0; wherein V0 is the average tumor volume measured at the time of grouping for administration (i.e., Day 0); and Vt is the average tumor volume measured on Day t.
The anti-tumor efficacy was evaluated by tumor growth inhibition TGIvolume (%) and T/Cvolume (%). T/Cvolume (%)=TRTV/CRTV×100%; TGIvolume (%)=100%−T/Cvolume (%); wherein TRTV and CRTV are respectively RTVs of the treatment group and vehicle group at the end of the test.
TGItumor weight (%) and T/Ctumor weight (%) were calculated based on tumor weight, and were used to evaluate the tumor inhibitory effect. The equation for calculation is as follows: T/Ctumor weight(%)=WTt/WCt×100%; TGItumor weight(%)=100%−T/Ctumor weight(%);
WTt is the average tumor weight in the treatment group at the end of the test; and WCt is the average tumor weight in the vehicle group at the end of the test.
The synergism was evaluated by Jin's equation q=EA+B/(EA+EB−EA×EB), wherein EA+B represents the efficacy achieved by the combination, and EA or EB represents the efficacy achieved by individual administration. In the present invention, the efficacy indicated in the equation refers to TGI %. When q<0.85, the combination administration is considered to achieve an antagonistic effect; when q=0.85-1.15, the combination administration is considered to achieve an additive effect; and when q>1.15, the combination administration is considered to achieve a synergistic effect.

[2] = system: human hepatoma Hep3B-luc cells; experiment: In vivo efficacy on orthotopic liver xenograft of human hepatoma Hep3B-luc cells in BALB/c nude mice; conditions: compound 1.5 mg/kg, Sorafenib 30 mg/kg, combination 1.5 + 30 mg/kg; for The average bioluminescence value of tumor (photons/sec) Day 0: Day 0, at grouping (baseline); for T/Cfluorescence (%) / T/Ctumor weight (%) / TGIfluorescence (%) / TGItumor weight (%) / The average bioluminescence value of tumor (photons/sec) Day 28 / Tumor weight: Day 28, p.o. every day
Description: This example aimed to evaluate the in vivo efficacy of the pharmaceutical combination of the present invention in a BALB/c nude mouse model with human hepatoma Hep3B-luc cell orthotopic xenografts.
as §2, with “Hep3B-luc” for “Hep3B”, “week. When cell saturation was 80-90%, the number met the requirement, and the cells were harvested and counted.” for “week.”
20 μl of the cell suspension (PBS:Matrigel=1:1) containing about 3×10^6 Hep3B-Luc cells was injected into the left lobe of the liver of BALB/c-nude mice.
as §3, §4, §5
After inoculation, the tumor growth was assessed by real-time IVIS fluorescence imaging, and mice bearing a tumor with a bioluminescence value of about 1E+8 photons/sec were selected, and randomized into groups (10 mice per group). The dosing volume was 10 mL/kg (in the group treated with the drug combination, the two drugs were administered individually at an interval of 4 hours), and the administration was performed by oral gavage (p.o.) every day for 4 weeks. The tumor volume and tumor weight were measured and recorded by IVIS bioluminescence.
The anti-tumor effect was evaluated by measuring the bioluminescence value, which reflects the tumor volume. The relative bioluminescence value (RB) was calculated by the measured average bioluminescence value, RB=Bt/B0, wherein B0 is the average bioluminescence value measured at the time of grouping for administration (i.e., Day 0); Bt is the average bioluminescence value measured on Day t. The anti-tumor efficacy was evaluated by tumor growth inhibition TGIfluorescence (%) and T/Cfluorescence (%). The equations for calculation are as follows: T/Cfluorescence(%)=TRB/CRB×100%; TGIfluorescence(%)=100%−T/Cfluorescence(%)
wherein TRB and CRB are respectively the relative fluorescence values (RB) of the treatment group and vehicle group.
The anti-tumor efficacy was evaluated by TGIfluorescence% or T/Cfluorescence%.
The anti-tumor effect was evaluated by tumor weight according to a method same as that described in Example 1.
(3) The Criteria for Determining Synergism were the Same as in Example 1.

[3] = system: mouse colon cancer MC38 cells expressing humanized PD-L1 (hPD-L1-MC38); experiment: In vivo efficacy on subcutaneous xenograft of mouse colon cancer hPD-L1-MC38 cells in C57BL/6J mice; conditions: Day 28; compound 1.5 mg/kg p.o. every day, Tecentriq 10 mg/kg i.p. once every 2 days, combination 1.5 + 10 mg/kg
Description: This example aimed to evaluate the in vivo efficacy of the pharmaceutical combination of the present invention in a C57BL/6J mouse model with subcutaneous xenograft of mouse colon cancer hPD-L1-MC38 cells expressing humanized PD-L1.
hPD-L1-MC38 cells were cultured as a monolayer in vitro, and the culture conditions were 1640 culture medium supplemented with 10% Fetal Bovine Serum, and incubation in an incubator at 37° C. and 5% CO2. The cells were subcultured by treatment with routine trypsin-EDTA digestion three times a week.
0.1 mL of a PBS resuspension containing 2×10^5 hPD-L1-MC38 cells was inoculated subcutaneously at the right scapula of each mouse, and the grouping of animals was performed on the day of inoculation.
as §3, §4
An appropriate amount of the hPD-L1 inhibitor (Atezolizumab, trade name: Tecentriq® purchased from Roche Corporation, WHO Pharmaceutical Information (International Nonproprietary Name for Pharmaceutical Substances), Recommended INN: List 74, Vol. 29, No. 3, 2015 (see page 387)) was taken, physiological saline was added to obtain a solution of Tecentriq® at a concentration of 1 mg/mL.
C57BL/6J mice were inoculated with hPD-L1-MC38 cells, randomized into groups (8 mice per group), and treated by administration on the same day of the inoculation. The dosing volume was 10 mL/kg (in the group treated with the drug combination, the two drugs were administered individually at an interval of 4 hours). The 4′-thionucleoside phosphamide derivative compound in the present invention was administered by oral gavage (p.o.) every day for 4 weeks, and Tecentriq was administered intraperitoneally (i.p.) once every 2 days for 4 weeks. The tumor weight was measured.
The anti-tumor effect was evaluated by the measured tumor weight, and the method of measuring tumor weight and its evaluation were the same as those described in Example 1.

[4] = Tolerability by body weight change of Hep3B cell tumor-bearing NU/NU nude mice; type: in vivo, mouse
Description: as §1, §6
(2) The Animal's Tolerance to a Drug was Evaluated by Animal Body Weight Change.
The method for calculating the animal body weight change (%) is as follows: (Wt−W0)/W0×100%; W0: the animal's body weight at the time of grouping for administration (i.e., Day 0); Wt: the animal's body weight on day t of the test.
Body weight change in the animals tested serve as a reference indicator for determining drug tolerance.

Compound | Tumor volume (mm^3) Day 0 [1] | T/Ctumor weight (%) ([1]; Day 20, p.o. every day) | T/Cvolume (%) ([1]; Day 20, p.o. every day) | TGItumor weight (%) ([1]; Day 20, p.o. every day) | TGIvolume (%) ([1]; Day 20, p.o. every day) | Tumor weight ([1]; Day 20, p.o. every day) | The average bioluminescence value of tumor (photons/sec) Day 0 [2] | T/Cfluorescence (%) [2] | T/Ctumor weight (%) [2] | TGIfluorescence (%) [2] | TGItumor weight (%) [2] | The average bioluminescence value of tumor (photons/sec) Day 28 [2] | Tumor weight [2] | T/Ctumor weight (%) [3] | TGItumor weight (%) [3] | Tumor weight [3] | Tumor volume (mm^3) Day 20 ([1]; Day 20, p.o. every day) | weight loss ([4]; Day 20, Sorafenib 30 mg/kg p.o. every day, printed as loss) | Body weight change (%) ([4]; Day 20, p.o. every day, compound 1.5 mg/kg, Sorafenib 30 mg/kg, combination 1.5 + 30 mg/kg, error range ±0.2%)
CC(C)OC(=O)C(C)NP(=O)(OCC1SC(n2ccc(N)nc2=O)C(F)C1O)Oc1ccccc1 (centres unmarked) | 137.67 ± 7.75 mm^3 | 61.02% | 65.25% | 38.98% | 34.75% | 1.19 g and 1.19 ± 0.25 g | 1.09E+8 photons/sec | 103.43% | 77.93% | −3.43% | 22.07% | 2.41E+10 photons/sec | 3.46 g and 3.46 ± 1.17 g | 95.16% | 4.84% | 3.54 g and 3.54 ± 0.41 g |  |  | 
CNC(=O)c1cc(Oc2ccc(NC(=O)Nc3ccc(Cl)c(C(F)(F)F)c3)cc2)ccn1 [Sorafenib] | 137.77 ± 7.92 mm^3 | 38.97% | 42.86% | 61.03% | 57.14% | 0.76 g and 0.76 ± 0.17 g | 1.09E+8 photons/sec | 64.81% | 31.53% | 35.19% | 68.47% | 1.51E+10 photons/sec | 1.40 g and 1.40 ± 0.82 g |  |  |  | 912.68 mm^3 and 912.68 ± 173.12 mm^3 | 8.31% | −8.31%
Atezolizumab [Tecentriq] |  |  |  |  |  |  |  |  |  |  |  |  |  | 73.12% | 26.88% | 2.72 g and 2.72 ± 0.44 g |  |  | 
